Measured values taken from the supplement of paper PMC10627819.

How the values were obtained:
Experiment in all cases: fitness (endpoint OD595 vs no drug) (fraction); higher = more growth
S. aureus DSM 20231 = tested on: S. aureus DSM 20231
Procedure, shortened: (§1)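 Bacterial fitness was scored as optical density at the stationary-phase transition relative to the robust mean of no-drug control wells. Scores are capped at 1. The growth data were OD595 readings every 30 min for 14 h at 37 °C, background-subtracted against the first reading, from 384-well plates inoculated at OD595 0.01 in TSB, LB Lennox or CY.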

S. aureus Newman = conditions: one replicate
Procedure, shortened: as §1

S. pneumoniae D39V = tested on: S. pneumoniae D39V
Procedure, shortened: as §1
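Also: OD595 on entry to stationary phase over no-drug wells; at most 1.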

CO[C@@]12[C@H](COC(N)=O)C3=C(C(=O)C(C)=C(N)C3=O)N1C[C@@H]1N[C@@H]12 [Mitomycin C] + CC1=C\[C@@H](O)CC(=O)Cc2nc(co2)C(=O)N2CCC=C2C(=O)O[C@H](C(C)C)[C@H](C)/C=C/C(=O)NC\C=C\1 [Virginiamycin M1]
fitness
Conditions | partner 0.0625 µg/mL | partner 0.125 µg/mL | partner 0.25 µg/mL | partner 0.5 µg/mL | partner 1 µg/mL | partner 2 µg/mL
S. aureus DSM 20231, first compound 0.0156 µg/mL | 0.697 | 0.712 | 0.747 | – | – | –
S. aureus DSM 20231, first compound 0.0312 µg/mL | 0.676 | 0.719 | 0.714 | – | – | –
S. aureus DSM 20231, first compound 0.0625 µg/mL | 0.576 | 0.579 | 0.578 | – | – | –
S. aureus Newman, first compound 0.0156 µg/mL | 0.71 | 0.702 | 0.681 | 0.66 | 0.667 | 0.593
S. aureus Newman, first compound 0.0312 µg/mL | 0.683 | 0.662 | 0.761 | 0.657 | 0.602 | 0.544
S. aureus Newman, first compound 0.0625 µg/mL | 0.564 | 0.597 | 0.583 | 0.564 | 0.54 | 0.433
S. pneumoniae D39V, first compound 0.001075 µg/mL | – | – | – | 0.966 | 0.929 | 0.928
S. pneumoniae D39V, first compound 0.002 µg/mL | – | – | – | – | – | 0.808
S. pneumoniae D39V, first compound 0.00215 µg/mL | – | – | – | 0.945 | 0.947 | 0.905
S. pneumoniae D39V, first compound 0.004 µg/mL | – | – | – | – | – | 0.783
S. pneumoniae D39V, first compound 0.0043 µg/mL | – | – | – | 0.856 | 0.839 | 0.835
S. pneumoniae D39V, first compound 0.008 µg/mL | – | – | – | – | – | 0.682

fitness, one replicate
Conditions | first compound 0.002 µg/mL | first compound 0.004 µg/mL | first compound 0.008 µg/mL | first compound 0.0156 µg/mL | first compound 0.0312 µg/mL | first compound 0.0625 µg/mL
S. aureus DSM 20231, partner 0.5 µg/mL | – | – | – | 0.774 | 0.681 | 0.515
S. aureus DSM 20231, partner 1 µg/mL | – | – | – | 0.825 | 0.701 | 0.611
S. pneumoniae D39V, partner 0.15 µg/mL | 0.927 | 0.849 | 0.791 | – | – | –
S. pneumoniae D39V, partner 0.3 µg/mL | 0.894 | 0.823 | 0.799 | – | – | –
S. pneumoniae D39V, partner 0.5 µg/mL | 0.936 | 0.887 | 0.767 | – | – | –
S. pneumoniae D39V, partner 1 µg/mL | 0.878 | 0.854 | 0.626 | – | – | –

CO[C@@]12[C@H](COC(N)=O)C3=C(C(=O)C(C)=C(N)C3=O)N1C[C@@H]1N[C@@H]12 [Mitomycin C] + CCC(C)C1C(=O)NC(=C)C(=O)NC(C(=O)NC(CSCC(C(=O)N1)NC(=O)/C(=C/C)/NC(=O)C(C(C)CC)N)C(=O)NC2C(SCC(NC(=O)CNC(=O)C3CCCN3C2=O)C(=O)NC(CCCCN)C(=O)NC4C(SCC(NC(=O)CNC(=O)C(NC(=O)C(NC(=O)C(NC(=O)CNC4=O)C)CC(C)C)CCSC)C(=O)NC(CC(=O)N)C(=O)NC(CCSC)C(=O)NC(CCCCN)C(=O)NC5C(SCC6C(=O)NC(C(=O)NC(CSC(C(C(=O)N6)NC(=O)C(NC5=O)C)C)C(=O)NC(CO)C(=O)NC(C(C)CC)C(=O)NC(CC7=CN=CN7)C(=O)NC(C(C)C)C(=O)NC(=C)C(=O)NC(CCCCN)C(=O)O)CC8=CN=CN8)C)C)C)CC(C)C [Nisin]
fitness, S. pneumoniae D39V, main component drawn
Conditions | first compound 0.001075 µg/mL | first compound 0.002 µg/mL | first compound 0.00215 µg/mL | first compound 0.004 µg/mL | first compound 0.0043 µg/mL | first compound 0.008 µg/mL
partner 0.4275 µg/mL | – | 0.982 | – | 0.838 | – | 0.636
partner 0.855 µg/mL | – | 0.943 | – | 0.844 | – | 0.538
partner 1.6 µg/mL | 0.0489 | – | 0.0715 | – | 0.0313 | –
partner 1.71 µg/mL | – | 0.0782 | – | 0.0797 | – | 0.0351
partner 3.2 µg/mL | 0.0397 | – | 0.038 | – | 0.0122 | –
partner 6.4 µg/mL | 0.0247 | – | 0.0066 | – | 0.0194 | –
